Measured values: PMC7818921, “Synthesis and biological evaluation of heterocyclic 1,2,4-triazole scaffolds as promising pharmacological agents” (BMC Chemistry, 2021)
In brackets after ≈: the same amount, converted by molar mass. Read-outs that look alike come from different tables or passages of the source.

Tests used:
[1] = DPPH free radical scavenging activity; conditions: for IC50: DPPH antioxidant; for % inhibition: DPPH
Method: In the DPPH free radical scavenging activity, compounds (T1–T20) were evaluated for their free radical scavenging activity with ascorbic acid as standard compound. The scavenging effect increased with the increasing concentrations of sample compounds. DPPH is relatively stable nitrogen centered free radical that easily accepts an electron or hydrogen radical to become a stable diamagnetic molecule. DPPH radicals react with suitable reducing agents as a result of which the electrons become paired off forming the corresponding hydrazine. The solution therefore loses colour stoichometrically depending on the number of electrons taken up. […] The sample solutions were incubated for 30 min at room temperature in dark place and after then absorbance was recorded against the blank solution at 517 nm. The relative percent of DPPH scavenging activity was calculated according to the following equation: I%=Acontrol-Asample/Acontrol×100,
where Acontrol is the absorbance of the control, Asample is the absorbance of the test compound.

Jack Bean Urease = Jack Bean Urease (Canavalia ensiformis, UniProt P07374); experiment: biochemical
Method: Urease inhibitory potential for each synthesisized compound (T1–T20) was evaluated using Jack Bean Urease by Indophenol method (Table 5, Figs. 9, 10, 11). 250 µl of jack bean urease (4U) was mixed with 250 µl of different synthesized test compounds and standard of different concentrations [dissolved in DMSO/H2O mixture (1:1 v/v)]. The mixture was pre-incubated for 1 h at 37 °C in test tubes. 2 ml of 100 mM phosphate buffer (pH 6.8) containing 500 mM urea and 0.002% phenol red as an indicator were added in sample test tubes after pre incubation and again incubated at room temperature. Absorbance of reaction mixture was recorded by ELISA at 570 nm. Ammonium carbonate increased the pH of phosphate buffer from 6.8 to 7.7 which was produced from urea by urease enzyme and the end peak was measured by the colour of phenol red indicator [16].
The percentage inhibition of urease enzyme was calculated by using following formula: I%=Acontrol-Asample/Acontrol×100,
where Acontrol is the absorbance of the control; Asample is the absorbance of the test compound.

[2] = test system: HCT116 (human colon cancer cells); experiment: Anticancer evaluation, SRB assay; assay type: cell-based; conditions: Homo sapiens, HCT-116
Method: HCT116 (human colon cancer cells) were seeded at 2500 cells/well (96 well plate), allowed to attach overnight, exposed to the respective compounds for 72 h and subjected to SRB assay (570 nm). Data represent mean IC50 of at least triplicates. The compounds were all dissolved in DMSO as stock of 100 mg/ml. […] The highest concentration of each compound tested (100 μg/ml) contained only 0.1% DMSO.

Escherichia coli = experiment: In vitro antimicrobial screening, tube dilution method; assay type: cell-based; conditions: Escherichia coli; E. coli, Gram −ve; nutrient broth, 37 ± 1 °C, 24 h; read-out: Minimum inhibitory concentration
Method: (§1) The in vitro antimicrobial screening of the synthesized 1,2,4-triazole derivatives (T1–T20) in μM was determined against Gram-positive Bacillus subtilis, […], Gram-negative Escherichia coli bacterium and fungal strains Candida albicans and Aspergillus niger by tube dilution method using ciprofloxacin, amoxycillin (antibacterial) and fluconazole (antifungal) as reference drugs. DMSO was used to dissolve the reference and sample derivatives (T1–T20). Dilutions were prepared in nutrient broth (I.P.) for bacterial (incubated at 37 ± 1 °C for 24 h) and Sabouraud dextrose broth (I.P.) for fungal species (37 ± 1 °C for 48 h for C. albicans) and (25 ± 1 °C for 7 days for A. niger) (Table 3, Figs. 4 and 5).

Bacillus subtilis = experiment: as above; assay type: cell-based; conditions: Bacillus subtilis; B. substilis, Gram +ve; nutrient broth, 37 ± 1 °C, 24 h; read-out: Minimum inhibitory concentration
Method: as §1

Pseudomonas aeruginosa = experiment: as above; assay type: cell-based; conditions: P. aeruginosa, Gram −ve, nutrient broth, 37 ± 1 °C, 24 h, read-out: Minimum inhibitory concentration
Method: as §1

Candida albicans = experiment: In vitro antifungal screening, tube dilution method; assay type: cell-based; conditions: Candida albicans; C. albican; Sabouraud dextrose broth, 37 ± 1 °C, 48 h; read-out: Minimum inhibitory concentration
Method: as §1

Aspergillus niger = experiment: as above; assay type: cell-based; conditions: Aspergillus niger, 168 h; A. niger; Sabouraud dextrose broth, 25 ± 1 °C, 7 days; read-out: Minimum inhibitory concentration
Method: as §1

[3] = HCT116, 72 h, SRB, mean of at least triplicates
[4] = HCT116, value given in dose-response figure

Sequence of Jack Bean Urease (P07374 whole entry, looked up): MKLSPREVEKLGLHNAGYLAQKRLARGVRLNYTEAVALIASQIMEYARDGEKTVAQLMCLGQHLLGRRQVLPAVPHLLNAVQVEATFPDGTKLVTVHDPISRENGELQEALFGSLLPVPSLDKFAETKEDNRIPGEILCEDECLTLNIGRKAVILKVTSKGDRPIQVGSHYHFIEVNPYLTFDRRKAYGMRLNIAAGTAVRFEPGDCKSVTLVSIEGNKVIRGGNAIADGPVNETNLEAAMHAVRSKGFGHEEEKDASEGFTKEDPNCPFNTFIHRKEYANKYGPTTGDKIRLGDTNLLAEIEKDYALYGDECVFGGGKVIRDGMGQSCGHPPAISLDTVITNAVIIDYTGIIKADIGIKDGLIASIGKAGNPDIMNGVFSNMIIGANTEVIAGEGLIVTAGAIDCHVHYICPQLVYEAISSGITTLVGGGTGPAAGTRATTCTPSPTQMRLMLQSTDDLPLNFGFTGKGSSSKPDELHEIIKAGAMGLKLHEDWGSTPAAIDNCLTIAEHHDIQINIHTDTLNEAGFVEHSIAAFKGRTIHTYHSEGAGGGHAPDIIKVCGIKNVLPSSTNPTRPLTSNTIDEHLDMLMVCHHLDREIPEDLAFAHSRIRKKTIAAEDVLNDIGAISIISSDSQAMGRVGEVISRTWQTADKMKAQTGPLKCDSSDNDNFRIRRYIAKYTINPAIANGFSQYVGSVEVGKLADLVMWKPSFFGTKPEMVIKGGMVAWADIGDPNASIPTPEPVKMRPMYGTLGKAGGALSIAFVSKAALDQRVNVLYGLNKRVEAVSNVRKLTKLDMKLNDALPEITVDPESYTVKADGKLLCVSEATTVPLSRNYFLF

Structure (SMILES) | IC50 [1] [µg/mL] | % inhibition ([1]; 25 µg/ml) [%] | % inhibition ([1]; 50 µg/ml) [%] | % inhibition ([1]; 75 µg/ml) [%] | % inhibition ([1]; 100 µg/ml) [%] | IC50 (Jack Bean Urease) [µM] | inhibition at 25 µg/mL (Jack Bean Urease) [%] | inhibition at 50 µg/mL (Jack Bean Urease) [%] | inhibition at 75 µg/mL (Jack Bean Urease) [%] | inhibition at 100 µg/mL (Jack Bean Urease) [%] | IC50 [2, 3] [µM] | MIC (Escherichia coli) [µM] | MIC (Bacillus subtilis) [µM] | MIC (Pseudomonas aeruginosa; Pseudomonas aeruginosa) [µM] | MIC (Candida albicans) [µM] | MIC (Aspergillus niger) [µM] | melting point [°C] | IC50 [2, 4] [µg/mL] | MIC (Pseudomonas aeruginosa) [µM]
CCCCCCCCCCCCCCCc1nnc(S)n1N=Cc1ccc(Cl)cc1 [Compound T11] | 45.36 (≈ 101 µM) | 35.78 | 52.89 | 70.89 | 89.9 | 122 | 25 | 42.5 | 68.9 | 92.7 | > 223 | 111 (≈ 50 µg/mL) | 55.6 (≈ 25 µg/mL) | 111 (≈ 50 µg/mL) | 27.8 (≈ 12.5 µg/mL) | 111 (≈ 50 µg/mL) | 202 to 205 |  | 
CCCCCCCCCCCCCCCc1nnc(S)n1N=Cc1cccc(Br)c1 [Compound T13] | 36.40 (≈ 73.8 µM) | 43.46 | 57.67 | 73.76 | 89.56 | 101 | 26.6 | 48.8 | 74 | 98.9 | > 203 | 203 (≈ 100 µg/mL) | 101 (≈ 50 µg/mL) | 203 (≈ 100 µg/mL) | 101 (≈ 50 µg/mL) | 203 (≈ 100 µg/mL) | 197 to 200 |  | 
CCCCCCCCCCCCCCCc1nnc(S)n1N=Cc1ccc(C=O)cc1 [Compound T2] | 34.83 (≈ 78.7 µM) | 45.67 | 56.98 | 70.16 | 84.21 | 120 | 40.5 | 49.5 | 55.7 | 67.6 | 3.84 | 113 (≈ 50 µg/mL) | 56.4 (≈ 25 µg/mL) | 56.4 (≈ 25 µg/mL) | 226 (≈ 100 µg/mL) | 226 (≈ 100 µg/mL) | 182 to 185 | 1.7 | 
CCCCCCCCCCCCCCCc1nnc(S)n1N=Cc1ccccc1O [Compound T7] | 38.54 (≈ 89.5 µM) | 46.75 | 52.56 | 60.56 | 70.41 | 121 | 24 | 46.9 | 76.1 | 91.9 | 3.25 | 116 (≈ 50 µg/mL) | 116 (≈ 50 µg/mL) | 29 (≈ 12.5 µg/mL) | 232 (≈ 100 µg/mL) | 232 (≈ 100 µg/mL) | 181 to 184 | 1.4 | 29.0 (≈ 12.5 µg/mL)
CCCCCCCCCCCCCCCc1nnc(S)n1N=Cc1ccc(Cl)cc1Cl [Compound T12] | 39.56 (≈ 81.8 µM) | 44.45 | 51.45 | 68.56 | 70.61 | 120 | 43.6 | 46.6 | 52.6 | 61.6 | > 207 | 103 (≈ 50 µg/mL) | 103 (≈ 50 µg/mL) | 51.7 (≈ 25 µg/mL) | 207 (≈ 100 µg/mL) | 103 (≈ 50 µg/mL) | 211 to 214 |  | 
CCCCCCCCCCCCCCCc1nnc(S)n1N=Cc1cccc(Cl)c1 [Compound T10] | 43.57 (≈ 97 µM) | 45.56 | 51.56 | 57.57 | 62.67 | 116 | 27.9 | 46.9 | 70.9 | 89.8 | 174 | 111 (≈ 50 µg/mL) | 55.6 (≈ 25 µg/mL) | 55.6 (≈ 25 µg/mL) | 223 (≈ 100 µg/mL) | 55.6 (≈ 25 µg/mL) | 205 to 208 |  | 
